Experiments:
IL-6 = IL-6 expression in HaCaT cells stimulated with IL-17A and TNFα (ELISA); format: cell-based, human; conditions: 10 μM solutions; HaCaT stimulated with IL-17A and TNFα; mean of five experiments in duplicate
Text: The effect of compounds 3a-b, 4a-e, 5a-e and 6a-e on the expression of IL-6 was subsequently assessed using the HaCaT spontaneously transformed aneuploid immortal keratinocyte cell line, stimulated by the addition of IL-17A and TNFα in the culture medium (Table 1). Curcumin and ibuprofen were used as known IL-6 expression inhibitors. DMSO was used for solubilizing the drugs. […] Indeed, the inhibitory effect of these molecules was at least equivalent to that of curcumin [27] and ibuprofen, both recognized as anti-inflammatory drugs. The inhibitory effect of the substituted phenyl cycloalkylureas in accordance with an embodiment of the present disclosure on proinflammatory cytokines was also found at the mRNA level. Indeed, the mRNAs of the cytokines IL-6 and TNF-α as well as the mRNA of the chemokine IL-8 were lowered in TNF-α/IL-17A-stimulated HaCaT cells. Similar results were obtained in THP-1 cells stimulated with LPS where treatments with CHEU and 4e diminished the mRNA levels of the cytokines IL-1B, IL-6 and TNF-α in addition to the mRNA levels of the chemokine IL-8. It is surmised that the anti-inflammatory mechanism of action of the compounds of the present disclosure is likely mediated, at least in part, by modulating the phosphorylation state of the MAP kinase p38. […] Addition of a compound in accordance with an embodiment of the present disclosure, prior to stimulation with the aforementioned cytokines, decreases the level of p-p38 at 30-60 minutes post-stimulation. This diminution in p-p38 levels destabilizes the mRNAs of pro-inflammatory cytokines, non-limiting examples of which include TNF-α and IL-6. Moreover, it is surmised that the effect of the compounds of the present disclosure on p-p38 is potentially mediated by the activation of the phosphatase named DUSP1.
HaCaT cells (1×10^5) were suspended in DMEM culture media (500 μL) and incubated for 24 h in 24-well microtiter plates at 37° C. in a moisture-saturated atmosphere containing 5% CO2. Compounds were solubilized in DMSO and diluted in fresh DMEM. The compound (500 μL) was then added to the cell medium to obtain a final concentration of […] and the cells incubated over a period of 1 hour. In the meantime, IL-17α (200 ng/mL) and TNFα (20 ng/mL) (PeproTech, Rocky Hill, N.J.) were added to the drug solution in DMEM. Following the initial incubation of the cells, the culture medium was aspirated from each well and the IL-17α+ TNFα+ compound solution was added to each well for incubation (6 hours). The culture media was then removed and transferred to a clean tube (1.5 mL) at −80° C. until the ELISA test was performed. The presence of IL-6 in the cell media was determined using an IL-6 human Duoset ELISA kit (Fisher Scientific, Ottawa, On.) according to the manufacturer's instructions. Standards and samples were prepared and assessed in duplicate. Two separate replicates were performed for each sample. The absorbance was measured at 450 nm and 540 nm using a TECAN infinite M1000 plate reader.

[1] = test system: HDFn neonatal dermal fibroblast cell line; assay: Antiproliferative activity (NCI procedure, sulforhodamine B), HDFn; format: cell-based, human; conditions: Homo sapiens, Fibroblast, 48 h
How it was run: (§1)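 Cells seeded in DMEM, grown 24 h at 37 °C, then exposed 48 h to serial dilutions from 100 μM to 781 nM (DMSO <0.5%). TCA fixation, sulforhodamine B staining, absorbance at 530-568 nm; growth inhibition relative to plates fixed on treatment day. At least two experiments in triplicate.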

[2] = test system: mRNAs of IL-1B, IL-6, TNF-α and IL-8; assay: mRNA levels of cytokines in THP-1 cells stimulated with LPS; format: cell-based; conditions: in words
Text: The effect of compounds 3a-b, 4a-e, 5a-e and 6a-e on the expression of IL-6 was subsequently assessed using the HaCaT spontaneously transformed aneuploid immortal keratinocyte cell line, stimulated by the addition of IL-17A and TNFα in the culture medium (Table 1). Curcumin and ibuprofen were used as known IL-6 expression inhibitors. DMSO was used for solubilizing the drugs. […] Indeed, the inhibitory effect of these molecules was at least equivalent to that of curcumin [27] and ibuprofen, both recognized as anti-inflammatory drugs. The inhibitory effect of the substituted phenyl cycloalkylureas in accordance with an embodiment of the present disclosure on proinflammatory cytokines was also found at the mRNA level. Indeed, the mRNAs of the cytokines IL-6 and TNF-α as well as the mRNA of the chemokine IL-8 were lowered in TNF-α/IL-17A-stimulated HaCaT cells. Similar results were obtained in THP-1 cells stimulated with LPS where treatments with CHEU and 4e diminished the mRNA levels of the cytokines IL-1B, IL-6 and TNF-α in addition to the mRNA levels of the chemokine IL-8. It is surmised that the anti-inflammatory mechanism of action of the compounds of the present disclosure is likely mediated, at least in part, by modulating the phosphorylation state of the MAP kinase p38. […]

[3] = test system: HT-29 colon adenocarcinoma cells; assay: Antiproliferative activity (NCI procedure, sulforhodamine B), HT-29; format: cell-based, human; conditions: Homo sapiens, HT-29, 48 h
How it was run: as §1

[4] = test system: HaCaT keratinocyte cell line; assay: Antiproliferative activity (NCI procedure, sulforhodamine B), HaCaT; format: cell-based, human; conditions: Homo sapiens, HaCaT, 48 h
How it was run: as §1

HaCaT cells = assay: Cell cycle analysis by flow cytometry; format: cell-based, human
Method: The effect of compounds 3a-b, 4e, 5b-c, 6a and 6e on cell cycle progression was subsequently assessed using a flow cytometer in accordance with established experimental protocols to evaluate any potential drug toxicity at specific phases of the cell cycle (Table 3).
HaCaT cells (2.5×10^5) were incubated with compounds 3a-b, 4e, 5b-c, 6a and 6e and curcumin (10 μM) over a period of 24 h. The cells were subsequently trypsinized, washed with PBS, resuspended in PBS (250 μL), fixed by the addition of ice-cold EtOH (750 μL) under agitation and stored at −20° C. until analysis. Prior to FACS analysis, cells were washed with PBS and resuspended in PBS (500 μL) containing 4′,6′-diamidino-2-phenylindole (DAPI) (2 μg/mL). The cell cycle was analyzed using an LSR II flow cytometer (BD Biosciences, Franklin Lakes, N.J.).

[5] = test system: A549 adenocarcinoma alveolar epithelial cancer cells; assay: Antiproliferative activity (NCI procedure, sulforhodamine B), A549; format: cell-based, human; conditions: Homo sapiens, A549, 48 h
How it was run: as §1

[6] = Table 6, unit inferred, tested 781 nM to 100 μM

Q: For `O=C(Nc1ccc(C2CCCCC2)cc1)NC1CC1` [Compound 54, 1-(4-Cyclohexylphenyl)-3-cyclopropylurea], which “Expression of IL-6, HaCaT” value (IL-6) is on record?
A: 29.2 ± 3.5 pg/mL

Q: And the GI50 ([1]; Table 2)?
A: 40 µM

Q: What about the IC50 [1, 6] of the same compound?
A: 40 µM

Q: What about the “mRNA levels of the cytokines IL-1B, IL-6 and TNF-α and of the chemokine IL-8” value [2] of the same compound?
A: diminished

Q: What about the GI50 ([3]; Table 2) of the same compound?
A: 54 µM

Q: And the IC50 [3, 6]?
A: 54 µM

Q: And the melting point?
A: 173 to 176 °C

Q: What about the GI50 ([4]; Table 2) of the same compound?
A: 74 µM

Q: And the IC50 [4, 6]?
A: 74 µM

Q: And the “Cell cycle progression G0-G1” value (HaCaT cells; 10 μM, 24 h)?
A: 47.7

Q: What about the “Cell cycle progression G2-M” value (HaCaT cells; 10 μM, 24 h) of the same compound?
A: 28.1

Q: And the “Cell cycle progression S” value (HaCaT cells; 10 μM, 24 h)?
A: 24.2

Q: And the “effect on cell cycle progression” value (HaCaT cells; in words)?
A: did not affect the cell cycle progression

Q: What about the GI50 ([5]; Table 2) of the same compound?
A: 48 µM

Q: And the IC50 [5, 6]?
A: 48 µM
